Data from patent US20110207751A1, “HETEROCYCLIC COMPOUNDS AND USES AS ANTICANCER AGENTS” (priority 2010, published 2011).
pIC50: −log10 of the molar value. Counter-ions that a name gives are not always drawn.

Experiments:
Assay type in all cases: cell-based
[1] = system: HT1080 cells (human connective tissue cancer cell line); test: Inhibition of cell proliferation, xCelligence cell index; conditions: HT-1080, 72 hr post compound treatment, read-out: calculated IC50
From the text: (§1) The biological activity of compounds disclosed herein was monitored and profiled using the Real-Time Cell Electronic Sensing (RT-CES®) system from ACEA Biosciences, Inc. The RT-CES system utilizes cell-substrate impedance technology to monitor cellular behavior inside tissue culture wells in a microtiter plate format. The technology features in the integration of molecular and cell biology with microelectronics and is based on the electronic detection of biological assay process. […]
(§2) For measurement of cell-substrate or cell-electrode impedance using RT-CES technology, microelectrodes having appropriate geometries are fabricated onto the bottom surfaces of microtiter plate or similar device, facing into the wells. […] When there are changes to the biological status of the cells analogue electronic readout signals are measured automatically and in real time, and are converted to digital signals for processing and for analysis. In a RT-CES system, a cell index (arbitrary representation of change in impedance) is automatically derived and provided based on measured electrode impedance values. […]
(§3) To quantify cell status based on the measured cell-electrode impedance, a parameter termed Cell Index is derived. Cell Index is a quantitative measure of the status of the cells in an electrode-containing well. […]

[2] = system: KB cells (parental cervical cancer cell line); test: as above; conditions: Homo sapiens, 72 hr post compound treatment, read-out: calculated IC50
From the text: For measurement of cell-substrate or cell-electrode impedance using RT-CES technology, microelectrodes having appropriate geometries are fabricated onto the bottom surfaces of microtiter plate or similar device, facing into the wells. Cells are introduced into the wells of the devices, and make contact to and attach to the electrode surfaces. The presence, absence or change of properties of cells affects the electronic and ionic passage on the electrode sensor surfaces. Measuring the impedance between or among electrodes provides important information about biological status of cells present on the sensors. When there are changes to the biological status of the cells analogue electronic readout signals are measured automatically and in real time, and are converted to digital signals for processing and for analysis. In a RT-CES system, a cell index (arbitrary representation of change in impedance) is automatically derived and provided based on measured electrode impedance values. The cell index obtained for a given well reflects: 1) how many cells are attached to the electrode surfaces in this well; 2) how well cells are attached to the electrode surfaces in this well. […]
The parental cervical cancer cell line, KB cells were first tested. […] The cell status was monitored prior to and after the compound addition using xCelligence system (Roche). […]

[3] = system: A549 human lung cancer cells; test: Cell Death Detection ELISA, apoptosis; conditions: 37 nM, 24 hr, 48 hr, 72 hr
Description: To test if COMPOUND O compound induces apoptosis in cancer cells, the A549 human lung cancer cells were treated with 37 nM COMPOUND O and 37 nM paclitaxel. Cell apoptosis and death detection was measured by Cell Death Detection ELISA kit (Roche Applied Sciences), according to the assay protocol from the kit. Briefly, 5000 cells were seeded into each well of the 96-well plate. […] Cells were harvested and lysed 24 hr, 48 hr or 72 hr post drug treatment. Twenty microliters of lysate were removed and transferred to streptavidin-coated microplate and then incubated with anti-histone-biotin and anti-DNA-POD antibodies for 2 hr followed by adding 2,2′-azinobis-3-ethylbenzthiazoline-sulphonic-acid substrate for color development. The plate was measured at an absorbance of 405 and 490 nm in a Beckman Multimode DTX880 plate reader.

[4] = system: SW620 cells (human colon cancer cell line); test: Inhibition of cell proliferation, xCelligence cell index; conditions: SW-620, 72 hr post compound treatment, read-out: calculated IC50
From the text: as §1, §2, §3

pIC50 [1] | pIC50 [4] | Compound | pIC50 [2] | apoptotic signal [3]
8.70 | – | CC[C@]1(O)C[C@H]2CN(CCc3c([nH]c4ccccc34)[C@@](C(=O)OC)(c3cc4c(cc3OC)N(C=O)[C@H]3[C@@](O)(C(=O)OC)[C@H](OC(C)=O)[C@]5(CC)C=CCN6CC[C@]43[C@@H]65)C2)C1 [vincristine] | – | –
8.12 | 8.58 | CCc1ccc(Nc2nc(-c3c(C)nc4sccn34)cs2)cc1 [COMPOUND O, 2-(4-ethylphenyl)amino-4-(6-methylimidazo[2,1-b]thiazol-5-yl)-thiazole monohydrobromide] | 7.48 | strong apoptotic signals (starting from 48 hr post drug treatment)
– | 9.00 | CC(=O)O[C@H]1C(=O)[C@@]2(C)[C@H]([C@H](OC(=O)c3ccccc3)[C@]3(O)C[C@H](OC(=O)[C@H](O)[C@@H](NC(=O)c4ccccc4)c4ccccc4)C(C)=C1C3(C)C)[C@]1(OC(C)=O)CO[C@@H]1C[C@@H]2O [paclitaxel] | 8.14 | strong apoptotic signals (starting from 48 hr post drug treatment)
